Patent EP4745134A1 (Jiangsu Yahong Meditech Co., Ltd., priority 2023, dated 2025)

How the values were obtained:
HCT116 MTAP KO cells = experiment: Inhibitory activity against cell proliferation (CellTiter Glo, 6 days), HCT116 MTAP KO; assay type: cell-based; settings: for IC50: Homo sapiens, HCT-116, 144 h, HCT116 MTAP KO cells, 6 days, CellTiter Glo, read-out: HCT116 MTAP KO IC50; for Selectivity HCT 116-WT/ HCT116 MTAP KO: ratio of IC50 HCT116-WT / HCT116 MTAP KO
Outline: (§1)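 Viability IC50s come from CellTiter Glo luminescence after 6 days' exposure to compound (8 concentrations, 4-fold steps, top 10000 nM), relative to DMSO wells. Cells were MTAP-KO or WT HCT116, seeded at 250 per well in McCoy's 5A with 10% FBS and incubated overnight before dosing.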

HCT116-WT cells = experiment: Inhibitory activity against cell proliferation (CellTiter Glo, 6 days), HCT116-WT; assay type: cell-based; settings: 144 h, HCT116-WT cells, 6 days, CellTiter Glo; read-out: HCT116-WT IC50
Outline: as §1

PRMT5-MTA = PRMT5-MTA (Homo sapiens, UniProt O14744); experiment: Enzymatic inhibitory activity against PRMT5-MTA (AlphaScreen); assay type: biochemical; settings: read-out: IC50
Outline: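 PRMT5/[…] (1 nM) was preincubated for 30 min at room temperature with 1 µM […] and 2.5 µM SAM, then exposed to compound (10-point, 3-fold from 1000 nM) for 15 min at 23 °C. Histone H4 substrate (5 nM) was added and reacted for 45 min at 23 °C. Symmetric dimethyl-R3 H4 was detected by AlphaScreen and IC50 calculated.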

PRMT5-MTA, sequence (O14744 whole entry): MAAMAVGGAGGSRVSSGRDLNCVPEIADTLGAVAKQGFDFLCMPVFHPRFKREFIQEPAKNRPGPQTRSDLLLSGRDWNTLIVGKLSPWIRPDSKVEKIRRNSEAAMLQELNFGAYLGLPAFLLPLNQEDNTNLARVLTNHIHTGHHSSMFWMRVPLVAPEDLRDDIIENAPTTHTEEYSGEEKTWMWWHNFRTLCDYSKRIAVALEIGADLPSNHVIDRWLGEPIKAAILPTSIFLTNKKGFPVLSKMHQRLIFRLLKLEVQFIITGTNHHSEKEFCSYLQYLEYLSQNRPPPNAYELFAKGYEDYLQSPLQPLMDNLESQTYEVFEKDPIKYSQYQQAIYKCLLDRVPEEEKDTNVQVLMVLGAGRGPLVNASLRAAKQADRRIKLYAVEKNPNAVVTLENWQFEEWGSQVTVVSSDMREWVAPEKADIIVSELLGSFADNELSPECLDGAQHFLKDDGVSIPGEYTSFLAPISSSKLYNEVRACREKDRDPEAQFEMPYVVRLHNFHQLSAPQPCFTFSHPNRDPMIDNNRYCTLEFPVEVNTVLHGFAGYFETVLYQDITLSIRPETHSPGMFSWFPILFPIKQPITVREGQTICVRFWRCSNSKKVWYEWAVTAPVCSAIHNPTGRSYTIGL
PRMT5-MTA, sequence (Q9BQA1 whole entry partner): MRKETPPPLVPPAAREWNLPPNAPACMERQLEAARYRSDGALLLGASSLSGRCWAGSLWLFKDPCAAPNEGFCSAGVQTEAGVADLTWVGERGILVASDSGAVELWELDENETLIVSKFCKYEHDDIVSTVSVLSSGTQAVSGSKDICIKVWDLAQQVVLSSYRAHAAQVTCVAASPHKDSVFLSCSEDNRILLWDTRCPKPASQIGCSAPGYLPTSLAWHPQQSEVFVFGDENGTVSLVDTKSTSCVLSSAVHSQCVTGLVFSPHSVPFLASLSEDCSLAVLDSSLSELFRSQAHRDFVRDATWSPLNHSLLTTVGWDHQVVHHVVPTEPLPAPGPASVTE

Row | Compound | IC50 (HCT116 MTAP KO cells) [nM] | Selectivity HCT 116-WT/ HCT116 MTAP KO (HCT116 MTAP KO cells) | IC50 (HCT116-WT cells) [nM] | IC50 (PRMT5-MTA) [nM]
1 | Cc1cc2cc(C(=O)N(Cc3ccc(C4=CCCOC4)cn3)N(C)c3ncccn3)ccc2nc1N [Example 187, 2-amino-N-((5-(5,6-dihydro-2H-pyran-3-yl)pyridin-2-yl)methyl)-N',3-dimethyl-N' -(pyrimidin-2-yl)quinoline-6-carbohydrazide] | 33 | 23.88 | 788 | 2.3
2 | C=Cc1ccc(CN(C(=O)c2ccc3nc(N)c(C)cc3c2)N(C)c2ncccn2)nc1 [Example 188, 2-amino-N',3-dimethyl-N'-(pyrimidin-2-yl)-N-((5-vinylpyridin-2-yl)methyl)quinoline-6-carbohydrazide] | 126 | 22.44 | 2830 | 2.7
3 | Cc1cc2cc(C(=O)N(Cc3ccc(-c4cc[nH]c4)cn3)N(C)c3ncccn3)ccc2nc1N [Example 191, N-((5-(1H-pyrrol-3-yl)pyridin-2-yl)methyl)-2-amino-N',3-dimethyl-N'-(pyrimidin-2-yl)quinoline-6-carbohydrazide] | 112 | 20.90 | 2340 | 2.5
4 | Cc1cc2cc(C(=O)N(Cc3ccc(-c4cnn(C5CC5)c4)cn3)N(C)c3ncccn3)ccc2nc1N [Example 192, 2-amino-N-((5-(1-cyclopropyl-1H-pyrazol-4-yl)pyridin-2-yl)methyl)-N',3-dimethyl -N'-(pyrimidin-2-yl)quinoline-6-carbohydrazide] | 44 | 27.66 | 1220 | 2.1
5 | Cc1cc2cc(C(=O)N(Cc3ccc(-c4cncnc4)cn3)N(C)c3ncccn3)ccc2nc1N [Example 193, 2-amino-N',3-dimethyl-N'-(pyrimidin-2-yl)-N-((5-(pyrimidin-5-yl)pyridin-2-yl)methyl)quinoline-6-carbohydrazide] | 94 | 25.35 | 2380 | 2.7
6 | Cc1cc2cc(C(=O)N(Cc3ccc(C4CC4)cn3)N(C)c3ncccc3C(F)(F)F)ccc2nc1N [Example 196, 2-amino-N-((5-cyclopropylpyridin-2-yl)methyl)-N',3-dimethyl-N'-(3-(trifluoromethyl)pyridin-2-yl)quinoline-6-carbohydrazide] | 34 | 12.97 | 441 | 5.7
7 | Cc1cc2cc(C(=O)N(Cc3ccc(-c4cnc5ccccc5c4)cn3)N(C)c3ncccn3)ccc2nc1N [Example 197, 2-amino-N',3-dimethyl-N'-(pyrimidin-2-yl)-N-((5-(quinolin-3-yl)pyridin-2-yl)methyl)quinoline-6-carbohydrazide] | 34 | 18.97 | 645 | 1.1
8 | COc1cc(-c2ccc(CN(C(=O)c3ccc4nc(N)c(C)cc4c3)N(C)c3ncccn3)nc2)cnc1F [Example 199, 2-amino-N-((6'-fluoro-5'-methoxy-[3,3'-bipyridine]-6-yl)methyl)-N',3-dimethyl-N'-(pyrimidin-2-yl)quinoline-6-carbohydrazide] | 106 | 18.53 | 1960 | 2.5
9 | Cc1cc2cc(C(=O)N(Cc3ccc(-c4cn[nH]c4)cn3)N(C)c3ncccn3)ccc2nc1N [Example 200, N-((5-(1H-pyrazol-4-yl)pyridin-2-yl)methyl)-2-amino-N',3-dimethyl-N'-(pyrimidin-2-yl)quinoline-6-carbohydrazide] | 36 | 34.36 | 1240 | 1.7
10 | Cc1cc2cc(C(=O)N(Cc3ccc(-c4ccsc4)cn3)N(C)c3ncccn3)ccc2nc1N [Example 201, 2-amino-N',3-dimethyl-N'-(pyrimidin-2-y 1)-N-((5-(thien-3-yl)pyridin-2-yl)methyl) quinoline-6-carbohydrazide] | 51 | 24.25 | 1240 | 2.1
11 | Cc1cc2cc(C(=O)N(Cc3ccc(-c4ccccc4)cn3)N(C)c3ncccn3)ccc2nc1N [Example 202, 2-amino-N',3-dimethyl-N-((5-phenylpyridin-2-yl)methyl)-N'-(pyrimidin-2-yl)quin oline-6-carbohydrazide] | 74 | 14.26 | 1060 | 2.9
